{"source": "patent US10045939B2", "about": "“Unit doses, aerosols, kits, and methods for treating heart conditions by pulmonary administration” (InCarda Therapeutics, Inc., priority 2009, dated 2018)", "key": {"[1]": {"details": "cited from earlier work"}, "[2]": {"system": "induced supraventricular tachycardia", "test": "Induced supraventricular tachycardia (SVT) model in anesthetized dogs, intratracheal (IT) vs intravenous administration", "assay_type": "in vivo, dog", "details": "for cardiovascular effect when given intratracheally (summary): intratracheal, summary of study", "description": "A venous catheter was placed in a peripheral vessel (i.e., cephalic) for administration of anesthetic(s). For anesthesia induction, all animals were given a combination of diazepam (˜0.5 mg/kg) and ketamine (˜10 mg/kg) intravenously through this venous catheter. Anesthesia was sustained until completion of the study with an intravenous infusion of pentobarbital (5-15 mg/kg/hr). Following induction, animals were endotracheally intubated and mechanically ventilated (˜12 breaths/min with a tidal volume of 200-300 mL).\nSubsequently, a cut-down on a jugular vein permitted the introduction of a pacing lead into the right atrium. Similarly, for arterial pressure monitoring, a solid-state micromanometer catheter (Millar Instruments) was advanced into the aortic root via a cut-down over an artery (e.g., femoral, carotid). Transthoracic electrodes forming ECG lead II was placed. For vehicle/test article delivery, a 4F catheter was introduced through the trachea and wedged into a small airway, and a venous catheter was placed in a peripheral vessel (i.e., cephalic).\nFollowing instrumentation/hemodynamic stabilization (for at least 15 minutes), right atrial pacing (5-10 V, 40 Hz, 2 ms pulses) was established in order to induce supraventricular tachycardia (SVT); pacing and SVT was sustained throughout the duration of the experiments. Approximately 5 minutes after onset of SVT and while monitoring ECG/arterial pressure continuously, the animals were administered three escalating doses (one at a time) of a test article; each dose was delivered as a bolus (˜3 mL) directly into a small airway through the intratracheal catheter (IT). Following dosing, the heart-rate (HR) and arterial pressure response were monitored for 15 minutes.\nSubsequently (once the response to three IT doses had been recorded), hemodynamic recovery was allowed for approximately 30 minutes, and the electrocardiographic/hemodynamic response to the highest test-article dose was re-evaluated; however, for comparison purposes, this dose was delivered intravenously (IV).\nOverall, two groups/test-articles were studied, and up to two animals were assigned to each group (n=2/group): one group received esmolol HCL (0.5-1.0 mg/kg, ESM), while the other received adenosine (0.25-1.0 mg/kg, ADN); only one test article was administered to per animal."}, "[3]": {"system": "induced atrial fibrillation", "test": "Induced atrial fibrillation model in anesthetized dogs, intratracheal (IT) administration", "assay_type": "in vivo, dog", "details": "for cardiovascular effect when given intratracheally (summary): summary of study; for conversion of atrial fibrillation to normal sinus rhythm: pulmonary (intratracheal/inhalation route)", "description": "A venous catheter was placed in a peripheral vessel (i.e., cephalic) for administration of anesthetic. For anesthesia induction, all animals were given morphine sulfate (˜2 mg/kg) and a bolus of alpha chloralose (˜100 mg/kg) intravenously through the venous catheter. Anesthesia was sustained with alpha chloralose (35-75 mg/kg/hour IV), until completion of the study (<2 hours). Following induction, animals were endotracheally intubated and mechanically ventilated (˜12 breaths/minute with a tidal volume of 200-300 mL). Subsequently, a cut-down on a jugular vein permitted introduction of a pacing lead into the right atrium. Transthoracic electrodes forming ECG lead II were placed. For test/vehicle article delivery, a 4F catheter was introduced through the trachea and wedged into a small airway, and a venous catheter was placed in a peripheral vessel (i.e., cephalic). Following instrumentation and hemodynamic stabilization (for at least 15 minutes), phenylephrine was continuously infused (2 ug/kg/min IV) to elevate the systemic arterial pressure and increase vagal (parasympathetic) efferent activity for the duration of the study. Approximately 5 min after administration of this parasympathomimetic was started; the following experiments were performed: First, the right atrium was paced (20 V, 40 Hz, 4 ms pulse) for 15 minutes, and following pacing discontinuation, atrial fibrillation ensued. Approximately 3 minutes after pacing was stopped and atrial fibrillation was observed, the animals were given vehicle (˜3 mL) intra-tracheally (IT); the duration between dosing and, (if observed) the return to sinus rhythm and/or the ventricular rate was noted. Observations were made for up to 10 minutes. Subsequently, atrial fibrillation was re-established via 15-minute pacing cycle(s), as described above. Once pacing was discontinued and atrial fibrillation was observed/stable for 3 minutes, the animals were administered the vehicle or one of the test articles, delivered as a bolus (˜3 mL) directly into a small airway through the intratracheal catheter. Vehicle was only water. In the case of flecainide as the test article, the concentration was 15 mg of flecainide/3 ml of water. Following dosing, the duration between cessation of administration and, if observed, return to sinus rhythm and/or ventricular rate were noted; observations were made for up to 10 minutes."}, "physchem": {"test": "physchem", "assay_type": "physicochemical", "excerpt": "To evaluate the solubilities of flecainide acetate and diltiazem hydrochloride in water and to evaluate the acceptability of taste and aftertaste of these two drugs for administration as liquid aerosols."}, "[4]": {"test": "Preformulation: properties of solutions in water (pH, isotonicity, appearance)", "assay_type": "physicochemical", "description": "To evaluate the solubilities of flecainide acetate and diltiazem hydrochloride in water and to evaluate the acceptability of taste and aftertaste of these two drugs for administration as liquid aerosols. The following solution strengths were prepared for taste evaluation: (1) diltiazem hydrochloride—50 mg/ml solution in distilled water; and (2) flecainide acetate—30 mg/ml solution in distilled water."}, "[5]": {"details": "human, in vivo", "description": "The following solution strengths were prepared for taste evaluation: (1) diltiazem hydrochloride—50 mg/ml solution in distilled water; and (2) flecainide acetate—30 mg/ml solution in distilled water.\nThe Aeroneb®GO device was used because it is a simple-to-use device developed specifically for patients who require respiratory therapy in and away from the home. The device can be used by patients of all ages (infant through adult) and aerosolizes solutions intended for inhalation. Aeroneb® Go works with either an AC wall controller or a battery pack, and can be cleaned with soap and water. More details about this device can be obtained at www.aerogen.com.\nNumber of subjects: 2 healthy male volunteers\nWater was poured into the nebulizer cup, and the nebulizer was turned on. The visible cloud of aerosol generated when the nebulizer was turned on was treated as a qualitative aerosol standard.\nAbout 1 ml of the 30 mg/ml solution was poured into the cup of the nebulizer. The nebulizer was turned on and the resulting aerosol was similar to but not as dense as the aerosol formed with the water alone.\nThe nebulizer was then placed in the mouth and switched on. Deep lung inhalation was performed through the nebulizer. About 40 μl (˜1.2 mg of flecainide acetate) of the test solution was inhaled. The inhaled dose was sub-therapeutic in nature as it was much less than the regular 100 mg administered as tablets. Flecainide acetate is also available as an IV injection in Europe as 10 mg/ml strength in 15 ml ampoules.\nAbout 1 ml of the 50 mg/ml solution was poured into the cup of the nebulizer. The nebulizer was turned on and the resulting aerosol was similar to but not as dense as the aerosol formed with the water alone.\nThe nebulizer was then placed in the mouth and a switched on. Deep lung inhalation was performed through the nebulizer. About 40 μl (˜2 mg of diltiazem hydrochloride) of the test solution was inhaled. The inhaled dose was sub-therapeutic in nature as it was much less than the IV injection marketed in the U.S. as 5 mg/ml in 5 ml vials."}, "[6]": {"details": "pulmonary dose 0.25 mg/kg body weight"}, "[7]": {"details": "pulmonary dose between 2-4 mg/kg body weight"}}, "note": "Counter-ions that a name gives are not always drawn. Like-named read-outs stand apart in the source and are kept apart here.", "data": [{"smiles": "CCCCCCCCCCCCCCCC(=O)OC[C@H](COP(=O)([O-])OCC[N+](C)(C)C)OC(=O)CCCCCCCCCCCCCCC", "note": "[DPPC, dipalmitoylphosphatidylcholine]", "values": [{"measurement": "solubility of the phospholipid in water", "setting": "[1]", "value": "about 10^−10 mol/L"}]}, {"smiles": "Nc1ncnc2c1ncn2[C@@H]1O[C@H](CO)[C@@H](O)[C@H]1O", "note": "[adenosine]", "values": [{"measurement": "effect on the heart", "setting": "[2]; administered via the lung", "value": "did not have any effect on the heart"}, {"measurement": "cardiovascular effect when given intratracheally (summary)", "setting": "[2]", "value": "clear response was not observed"}]}, {"smiles": "COc1ccc([C@@H]2Sc3ccccc3N(CCN(C)C)C(=O)[C@@H]2OC(C)=O)cc1.Cl", "note": "[diltiazem, diltiazem hydrochloride]", "values": [{"measurement": "mean arterial blood pressure (MAP)", "setting": "[3]; dog, in vivo, 0.25 mg/kg", "value": "notable drop in mean arterial blood pressure"}, {"measurement": "heart rate", "setting": "[3]; inhalation route, dose not stated", "value": "reduced heart rate"}, {"measurement": "cardiovascular effect when given intratracheally (summary)", "setting": "[3]; intratracheal", "value": "clear cardiovascular effect"}, {"measurement": "conversion of atrial fibrillation to normal sinus rhythm", "setting": "[3]; dose not stated, hydrochloride", "value": "rapidly converted the Atrial Fibrillation to normal sinus rhythm"}, {"measurement": "PQ interval", "setting": "[3]; [6]", "value": "prolonged the PQ"}, {"measurement": "heart rate", "setting": "[3]; [6]", "value": "slowed down marginally"}, {"measurement": "conversion of induced atrial fibrillation to normal sinus rhythm", "setting": "[3]; pulmonary dose 0.25 mg/kg body weight, hydrochloride, 0.25 mg/kg", "value": "converted the induced atrial fibrillation to normal sinus rhythm"}, {"measurement": "conversion of induced atrial fibrillation to normal sinus rhythm", "setting": "[3]; pulmonary dose 0.25 mg/kg body weight, listed as diltiazem HCl, hydrochloride, 0.25 mg/kg", "value": "Afib converting"}, {"measurement": "PR interval", "setting": "[2]; IV or pulmonary route (0.25 mg/kg per FIGS. 14 and 15)", "value": "prolonged the PR interval"}, {"measurement": "timing of the electrophysiological change", "setting": "[2]; IV vs pulmonary", "value": "comparable between IV and pulmonary"}, {"measurement": "Mean Arterial Pressure (MAP)", "setting": "[2]; dog, in vivo, iv, 0.25 mg/kg", "value": "dropped significantly in both cases"}, {"measurement": "comparison of pulmonary and IV routes", "setting": "[2]; pulmonary vs IV (0.25 mg/kg per FIGS. 14 and 15)", "value": "comparable in all aspects"}, {"measurement": "solubility", "setting": "physchem", "value": "> 90", "unit": "mg/mL"}, {"measurement": "pH of solution in water", "setting": "[4]; 3.5 mg/mL solution in water", "value": 6.7}, {"measurement": "isotonicity of solution in water (% to isotonic)", "setting": "[4]; 50 mg/mL in water", "value": "about 80%"}, {"measurement": "appearance of solution", "setting": "[4]; 50 mg/ml solution in distilled water", "value": "clear with no visible particulate matter"}, {"measurement": "burning sensations in the mouth, throat, or lungs", "setting": "[5]", "value": "No burning sensations was felt in the mouth, throat, or lungs"}, {"measurement": "visible adverse events", "setting": "[5]", "value": "No visible adverse events were observed"}]}, {"smiles": "CN(CCOc1ccc(NS(C)(=O)=O)cc1)CCc1ccc(NS(C)(=O)=O)cc1", "note": "[dofetilide]", "values": [{"measurement": "heart rate", "setting": "[3]; escalating pulmonary doses of 10-40 mcg/kg body weight", "value": "minor reduction in heart rate"}, {"measurement": "ventricular rate", "setting": "[3]; intratracheal, dose not stated", "value": "marginally slowed the ventricular rate"}, {"measurement": "cardiovascular effect when given intratracheally (summary)", "setting": "[3]; intratracheal", "value": "probable effect"}]}, {"smiles": "COC(=O)CCc1ccc(OCC(O)CNC(C)C)cc1", "note": "(stereo not drawn) [esmolol, esmolol HCL]", "values": [{"measurement": "period of AV block (FIGS. 17, 18)", "setting": "[2]; 0.5 mg/kg administered via the lung", "value": "AV block induced"}, {"measurement": "period of AV block (FIG. 20)", "setting": "[2]; 0.75 mg/kg administered via the lung", "value": "AV block induced"}, {"measurement": "drop in MAP", "setting": "[2]; delivered via the lung, any of the doses", "value": "did not cause a drop in MAP"}, {"measurement": "cardiovascular effect when given intratracheally (summary)", "setting": "[2]", "value": "probable effect"}, {"measurement": "PR intervals in the ECG traces", "setting": "[2]; via the lung (IT), elevating doses", "value": "affecting the PR intervals"}, {"measurement": "electrophysiological effects", "setting": "[2]; via the lung (IT), higher dose 1.0 mg/kg", "value": "did not produce the same electrophysiological effects"}, {"measurement": "AV block", "setting": "[2]; via the lung (IT), lower doses", "value": 2, "unit": "nd degree AV block"}]}, {"smiles": "O=C(NCC1CCCCN1)c1cc(OCC(F)(F)F)ccc1OCC(F)(F)F", "note": "(stereo not drawn) [flecainide, flecainide acetate]", "values": [{"measurement": "conversion of Afib (ECG trace, FIG. 12)", "setting": "[3]; 2 mg/kg body weight", "value": "Afib converting as soon as dosing occurred"}, {"measurement": "conversion of Afib to normal sinus rhythm (ECG trace, FIG. 11)", "setting": "[3]; 4 mg/kg body weight", "value": "Afib converting into normal sinus rhythm"}, {"measurement": "cardiovascular effect when given intratracheally (summary)", "setting": "[3]; intratracheal", "value": "clear cardiovascular effect"}, {"measurement": "conversion of atrial fibrillation to normal sinus rhythm", "setting": "[3]; dose not stated", "value": "rapidly converted the Atrial Fibrillation to normal sinus rhythm"}, {"measurement": "adverse events such as proarrhythmia", "setting": "[3]; [7]", "value": "Neither dogs exhibited any known adverse events such as proarrhythmia"}, {"measurement": "conversion of induced atrial fibrillation to normal sinus rhythm", "setting": "[3]; [7]", "value": "converted the induced atrial fibrillation to normal sinus rhythm"}, {"measurement": "drop in mean arterial pressure", "setting": "[3]; [7]", "value": "None to minimal drop in mean arterial pressure"}, {"measurement": "ventricular rate", "setting": "[3]; pulmonary, large doses", "value": "slower ventricular rates"}, {"measurement": "solubility", "setting": "physchem; water", "value": "~30", "unit": "mg/mL"}, {"measurement": "pH of solution in water", "setting": "[4]; 2.6 mg/mL solution in water", "value": 5.0}, {"measurement": "isotonicity of solution in water (% to isotonic)", "setting": "[4]; 30 mg/mL in water", "value": "about 50%"}, {"measurement": "appearance of solution", "setting": "[4]; 30 mg/ml solution in distilled water", "value": "clear with no visible particulate matter"}, {"measurement": "burning sensations in the mouth, throat, or lungs", "setting": "[5]", "value": "No burning sensations was felt in the mouth, throat, or lungs"}, {"measurement": "visible adverse events", "setting": "[5]", "value": "No visible adverse events were observed"}]}]}
